# Laboratory results as given in BindingDB's records for doi:10.1007/s00044-008-9125-0 (n/a, 2009).
# Test: Inhibition of Bos taurus (bovine) heart cAMP-dependent phosphodiesterase assessed as inhibition of cyclic AMP to 5' AMP after 20 min by spectrophotometry
row,Compound,IC50
1,O=c1c2ccccc2nc(-c2ccccc2)n1-c1nc2ccc([N+](=O)[O-])cc2s1,2640 µM
2,CCOc1ccc2sc(-n3c(-c4ccccc4)nc4c(Br)cc(Br)cc4c3=O)nc2c1,2150 µM
3,Cc1ccc2sc(-n3c(-c4ccccc4)nc4ccccc4c3=O)nc2c1,2270 µM
4,COc1ccc2sc(-n3c(-c4ccccc4)nc4ccccc4c3=O)nc2c1,2330 µM
5,COc1ccc2nc(-n3c(-c4ccccc4)nc4c(Br)cc(Br)cc4c3=O)sc2c1,2120 µM
6,CCOc1cccc2sc(-n3c(-c4ccccc4)nc4ccccc4c3=O)nc12,2420 µM
7,CCOc1ccc2nc(-n3c(-c4ccccc4)nc4ccccc4c3=O)sc2c1,2430 µM
8,Cc1ccc2sc(-n3c(-c4ccccc4)nc4c(Br)cc(Br)cc4c3=O)nc2c1,2020 µM
9,CCOc1cccc2sc(-n3c(-c4ccccc4)nc4c(Br)cc(Br)cc4c3=O)nc12,2160 µM
10,O=c1c2cc(Br)cc(Br)c2nc(-c2ccccc2)n1-c1nc2ccc([N+](=O)[O-])cc2s1,1520 µM
11,O=c1c2cc(Br)cc(Br)c2nc(-c2ccccc2)n1-c1nc2cc(Cl)ccc2s1,1440 µM
12,COc1ccc2sc(-n3c(-c4ccccc4)nc4c(Br)cc(Br)cc4c3=O)nc2c1,2090 µM
13,COc1cccc2sc(-n3c(-c4ccccc4)nc4c(Br)cc(Br)cc4c3=O)nc12,2070 µM
14,O=c1c2cc(Br)cc(Br)c2nc(-c2ccccc2)n1-c1nc2ccccc2s1,1930 µM
15,O=c1c2ccccc2nc(-c2ccccc2)n1-c1nc2ccc(Br)cc2s1,2130 µM
16,O=c1c2ccccc2nc(-c2ccccc2)n1-c1nc2cc(Cl)ccc2s1,2110 µM
17,COc1cccc2sc(-n3c(-c4ccccc4)nc4ccccc4c3=O)nc12,2320 µM
18,O=c1c2ccccc2nc(-c2ccccc2)n1-c1nc2ccccc2s1,2100 µM
19,COc1ccc2nc(-n3c(-c4ccccc4)nc4ccccc4c3=O)sc2c1,2420 µM
20,Cc1cc(C)c2nc(-n3c(-c4ccccc4)nc4c(Br)cc(Br)cc4c3=O)sc2c1,2070 µM
21,Cc1cccc2sc(-n3c(-c4ccccc4)nc4c(Br)cc(Br)cc4c3=O)nc12,2030 µM
22,Cc1cc(C)c2nc(-n3c(-c4ccccc4)nc4ccccc4c3=O)sc2c1,2410 µM
23,Cc1cccc2sc(-n3c(-c4ccccc4)nc4ccccc4c3=O)nc12,2280 µM
24,CCOc1ccc2nc(-n3c(-c4ccccc4)nc4c(Br)cc(Br)cc4c3=O)sc2c1,2120 µM
25,CCOc1ccc2sc(-n3c(-c4ccccc4)nc4ccccc4c3=O)nc2c1,2490 µM
26,O=c1c2cc(Br)cc(Br)c2nc(-c2ccccc2)n1-c1nc2ccc(Br)cc2s1,1640 µM
